Literature values, collected in US8748589B2, “Complex crystalline sugar comprising D-psicose and D-allose and process for production of the same” (priority 2005, dated 2014).

Tested on: L-rhamnose isomerase
Conditions: for inhibition of L-rhamnose isomerase activity by coexisting chelating agent: chelating agent present at the time of measurement of the activity

SMILES | inhibition of L-rhamnose isomerase activity by coexisting chelating agent | inhibition of L-rhamnose isomerase activity by metal ion (1 mM cobalt ion)
O=C(O)CN(CCN(CC(=O)O)CC(=O)O)CC(=O)O [EDTA] | Almost no activity was inhibited | 
O=C(O)CN(CCOCCOCCN(CC(=O)O)CC(=O)O)CC(=O)O [EGTA] | Almost no activity was inhibited | 
[Co+2] [cobalt ion] |  | About 30%
